pIC50: −log10 of the molar value.
Test system: HES1
Experiment: Human neural stem cell assay, Hes1 gene expression (real-time PCR)
Type: cell-based
Details: human neural stem cells, 7 point CRC, read-out: hNSC HES1 IC50
Description: Neural stem cells (NSC) were derived from embryonic stem cells using a published protocol (Yuan et al., Mar. 2, 2011, PLoS ONE, 6(3):e17540). Cells were sorted and characterized at passage 3 and were expanded. Cells were then frozen at passage 5. Cells were maintained in NSC media (DMEM/F12, N2 (1×), B27(1×) (Invitrogen), and Pen/Strep (1×) (Life Technologies) with 20 ng/ml bFGF (BD Bioscience/Corning)). On day 1, cells were plated in 96 well plates that have been previously coated with poly-ornithin and laminin, 60,000 cells/well in 100 μl of media. On day 2, spent media was removed, and 180 μl of fresh media was added to the cells. Later that same day (day 2), cells were treated with 20 μl of NSC media containing test compounds (7 point CRC). On day 3, spent media was removed and 140 μl of RLT/bME was added to the cells. RNA was extracted using the QiaCube (Qiagen®, Germantown, Md., USA) using the total RNA extraction+DNAse protocol. RNA was then reverse-transcribed to cDNA using iScript (Bio-Rad, Hercules, Calif., USA). cDNA was then used for real-time PCR analysis using iTaq Sybergreen (BioRad). Expression of Atoh1, Hes5, Hes1, Myosin7a genes was evaluated using CFX96 or CFX384 (Bio-Rad). HPRT1 was used as a reference gene. Analysis was done using Microsoft® Excel® and CBIS (ChemInnovation Software, Inc., San Diego, Calif., USA). […]

SMILES: C[C@H](OC(=O)NCC(F)(F)C(F)(F)F)C(=O)N[C@@H]1C(=O)Nc2ccccc2-c2ccccc21 [Compound I, (2,2,3,3,3-pentafluoropropyl)-carbamic acid (S)-1-((S)-6-oxo-6,7-dihydro-5H-dibenzo[b,d]azepin-7-ylcarbamoyl) ethyl ester]
- pIC50: 6.62

From patent US10865188B2, “Dibenzo azepine compounds and their use in the treatment of otic diseases and disorders” (Pipeline Therapeutics, Inc., priority 2015, dated 2020)
